The subject of experiment [1] is platelet aggregation induced by PAF. As to the kind of experiment: Test 1: inhibition of platelet aggregation induced by PAF in vitro (rabbit platelet rich plasma, Born nephelometric technique). To be noted: PAF C18 16 nM final, read-out: IC50 (concentration of the drug needed to inhibit the platelet aggregation in a 50%). In kind it is cell-based, male New Zealand albino rabbits. As for the experimental part:
TEST 1: INHIBITION OF PLATELET AGGREGATION INDUCED BY PAF
The platelet rich plasma (PRP) is prepared by blood centrifugation at 250 xg for 10 min. at 4° C. and it is diluted with platelet poor plasma (PPP) obtained by additional centrifugation at 300 xg for 10 min. The amount of platelets is adjusted to […].

Experiment [2] has as its system hypotension induced by PAF. The experiment is described as follows: Test 2: inhibition of the hypotensive effect induced by PAF in normotense rats. The format is in vivo, male Sprague Dawley rats. To be noted: anesthetized rats, compound via femoral vein 3 min before PAF (0.5 mg/Kg, i.v.); for ED50: Rattus norvegicus, iv, read-out: IC50 (inhibition of the hypotension induced by PAF). Here is the method: TEST 2--INHIBITION OF THE HYPOTENSIVE EFFECT INDUCED BY PAF IN NORMOTENSE RATS
Male Sprague Dawley rats, of 180-220 g of weight, anesthetized with sodium pentobarbital (50 mg/Kg, i.p. 1 mL/100 g) have been used. In order to measure the average arterial pressure a polyethylene catheter was introduced into the carotid artery. The arterial pressure was recorded with the help of a transducer connected with a R611 Beckman polygraph. The tested compounds were administrated through the femoral vein 3 min. before the injection of PAF (0.5 mg/Kg, i.v.).

The mark [3] stands for this setting: Oryctolagus cuniculus, Platelet.

Where two headings read alike, the source gives them in different places.

Take `CCCCCCCCCCCCCCCCOCC1COC(COC(=O)N(Cc2cccc[n+]2CC)C(C)=O)C1` (racemic) [Compound 58, (±)-cis, trans-N-ethyl-2-[N-acetyl-[[[(4-hexadecyloxymethyltetrahydrofuran-2-yl)methoxy]carbonyl]amino]methyl]pyridinium chloride]: the IC50 in experiment [1] is 9 nM. For the same compound, the “IC50 (inhibition of the hypotension induced by PAF)” value in experiment [2] was 0.044 mg/Kg, i.v.

Take `CCCCCCCCCCCCCCCCCCOCC1CC(COCCCCC[n+]2ccsc2)CO1` (racemic) [Compound 62, (±)-cis, trans-3-[5-[(2-octadecyloxymethyltetrahydrofuran-4-yl)methoxy]pentyl]thiazolium 4-methylbenzenesulfonate]: in experiment [1] (setting [3]), the IC50 was found to be 2100 nM.

As for `CCCCCCCCCCCCCCCCOCC1COC(COC(=O)N(Cc2cccc[n+]2C)C(C)=O)C1` (racemic) [Compound 12, (±)-cis, trans-N-methyl-2-[N-acetyl-[[[(4-hexadecyloxymethyltetrahydrofuran-2-yl)methoxy]carbonyl]amino]methyl]pyridinium iodide], in experiment [1] (setting [3]), the IC50 was 100 nM. The ED50 in experiment [2] is 0.23 mg/kg.

`CCCCCCCCCCCCCCC1COC(COCCCCCC[n+]2ccn(C)c2)C1` (racemic) [Compound 73, (±)-cis, trans-3-methyl-1-[6-[(4-tetradecyltetrahydrofuran-2-yl)methoxy]hexyl]imidazolium 4-methylbenzenesulfonate]: in experiment [1] (setting [3]), the IC50 is 15000 nM.

Regarding `CCCCCCCCCCCCCCC1COC(COC(=O)CCCCC[n+]2ccccc2)C1` (racemic) [Compound 77, (±)-cis, trans-1-[6-[(4-tetradecyltetrahydrofuran-2-yl)methoxy]-6-oxohexyl]pyridinium 4-methylbenzenesulfonate], the IC50 in experiment [1] (setting [3]) worked out at 120000 nM.

Take `CCCCCCCCCCCCCCCCCCOCC1CC(COC(=O)CCCCC[n+]2ccsc2)CO1` (racemic) [Compound 64, (±)-cis, trans-3-[6-[(2-octadecyloxymethyltetrahydrofuran-4-yl)methoxy]6-oxohexyl]thiazolium 4-methylbenzenesulfonate]: the IC50 in experiment [1] (setting [3]) is 1500 nM. For the same compound, the ED50 in experiment [2] was determined as 1.1 mg/kg.

Take `CCCCCCCCCCCCCCC1COC(COC(=O)N(Cc2cccc[n+]2C)C(C)=O)C1` (racemic) [Compound 109, (±)-cis,trans-N-methyl-2-[N-acetyl-[[[(4-tetradecyltetrahydrofuran-4-yl]methoxy]carbonyl]amino]methyl]pyridinium iodide]: the IC50 in experiment [1] (setting [3]) stood at 240 nM. Also, the ED50 in experiment [2] turned out to be 0.39 mg/kg.

On to `CCCCCCCCCCCCCC[C@@H]1CO[C@H](COCCCCCC[n+]2ccsc2)C1` (relative stereo) [Compound 83, (±)-cis-3-[6-[(4-tetradecyltetrahydrofuran-2-yl)methoxy]hexyl]thiazolium4-methylbenzenesulfonate], for which the IC50 in experiment [1] (setting [3]) worked out at 2600 nM.

`CCCCCCCCCCCCCCC1COC(COCCCCCC[n+]2cccc3ccccc32)C1` (racemic) [Compound 72, (±)-cis, trans-1-[6-[(4-tetradecyltetrahydrofuran-2-yl)methoxy]hexyl]quinolinium 4-methylbenzenesulfonate]: the IC50 in experiment [1] (setting [3]) turned out to be 3400 nM. Besides, the ED50 in experiment [2] amounted to 3.2 mg/kg.

As for `CCCCCCCCCCCCCCC1COC(COCCCCCC[N+](C)(C)C)C1` (racemic) [Compound 71, (±)-cis, trans-6-[6-(4-tetradecyltetrahydrofuran-2-yl)methoxy]N,N,N-trimethylhexaminium 4-methylbenzenesulfonate], the IC50 in experiment [1] (setting [3]) was 8200 nM.

Take `CCCCCCCCCCCCCCOCC1COC(COCCCCCC[n+]2ccsc2)C1` (racemic) [Compound 3, (±)-cis, trans-3-[6-[(4-tetradecyloxymethyltetrahydrofuran-2-yl)methoxy]hexyl]thiazolium 4-methylbenzenesulfonate]: the IC50 in experiment [1] (setting [3]) worked out at 700 nM. For the same compound, the ED50 in experiment [2] is 3 mg/kg.

Turning to `CCCCCCCCCCCCCCCCOCC1COC(COC(=O)NCc2cccc[n+]2CC)C1` (racemic) [Compound 10, (±)-cis, trans-N-ethyl-2-[[[(4-hexadecyloxymethyltetrahydrofuran-2-yl)methoxy]carbonyl]amino]methylpyridinium iodide], the IC50 in experiment [1] (setting [3]) was 3800 nM. For the same compound, the ED50 in experiment [2] came out at 6.6 mg/kg.

Consider `CCCCCCCCCCCCCCC1COC(COC(=O)CCCCC[N+](C)(C)C)C1` (racemic) [Compound 76], for which the IC50 in experiment [1] (setting [3]) came out at 180000 nM.

In the case of `CCCCCCCCCCCCCCCCOCC1CC(COCCCCCC[n+]2ccsc2)CO1` (mixture of isomers) [Compound 63, (35)-cis, trans-3-[6-[(2-hexadecyloxymethyltetrahydrofuran-4-yl)methoxy]hexyl]thiazolium 4-methylbenzenesulfonate], in experiment [1] (setting [3]), the IC50 is 1400 nM. Moreover, in experiment [2], the ED50 stood at 2.5 mg/kg.

Consider `CCCCCCCCCCCCCCC1COC(COCCCCCC[n+]2ccsc2)C1` (racemic) [Compound 70, (±)-cis, trans-3-[6-[(4-tetradecyltetrahydrofuran-2-yl)methoxy]hexyl]thiazolium 4-methylbenzenesulphonate], for which, in experiment [1] (setting [3]), the IC50 is 2200 nM. Besides, the ED50 in experiment [2] is 2.2 mg/kg.

Regarding `CCCCCCCCCCCCCCOCC1COC(COCCCCCCC[n+]2ccsc2)C1` (racemic) [Compound 2, (±)-cis, trans-3-[7-(4-tetradecyloxymethyltetrahydrofuran-2-yl)methoxy]heptyl]thiazolium 4-methylbenzenesulfonate], the IC50 in experiment [1] (setting [3]) turned out to be 900 nM. Besides, the ED50 in experiment [2] was found to be 1.4 mg/kg.

For `CCCCCCCCCCCCCCCCOCC1COC(COC(=O)CCCCC[n+]2ccsc2)C1` (racemic) [Compound 5, (±)-cis, trans-3-[6-[(4-hexadecyloxymethyltetrahydrofuran-2-yl)methoxy]-6-oxohexyl]thiazolium 4-methylbenzenesulfonate], the IC50 in experiment [1] (setting [3]) is 4800 nM. In experiment [2], the ED50 was found to be 1.6 mg/kg.

Turning to `CCCCCCCCCCCCCCCCCCOCC1CC(COCCCCCCC[n+]2ccsc2)CO1` (racemic) [Compound 61, (±)-cis, trans-3-[7-[(2-octadecyloxymethyltetrahydrofuran-4-yl)methoxy]heptyl]thiazolium chloride], the IC50 in experiment [1] (setting [3]) turned out to be 2000 nM. In addition, the ED50 in experiment [2] worked out at 2.1 mg/kg.

Take `CCCCCCCCCCCCCCCCOCC1COC(COC(=O)N(Cc2cccc[n+]2CC)C(C)=O)C1` (racemic) [Compound 13, (±)-cis, trans-N-ethyl-2-[N-acetyl-[[[(4-hexadecyloxymethyltetrahydrofuran-2-yl)methoxy]carbonyl]amino]methyl]pyridinium iodide]: in experiment [1], the IC50 was 22 nM. For the same compound, the ED50 in experiment [2] was determined as 0.035 mg/kg.

Consider `CCCCCCCCCCCCCCCCCCC1COC(COC(=O)N(Cc2cccc[n+]2CC)C(C)=O)C1` (racemic) [Compound 113], for which, in experiment [1] (setting [3]), the IC50 was 200 nM. Besides, the ED50 in experiment [2] was found to be 0.2 mg/kg.

With `CCCCCCCCCCCCCCC1COC(COCCCC[n+]2ccccc2C)C1` (racemic) [Compound 80, (±)-cis, trans-2-methyl-1-[4-[(4-tetradecyltetrahydrofuran-2-yl)methoxy]butyl]pyridinium 4-methylbenzenesulfonate], the IC50 in experiment [1] (setting [3]) turned out to be 75000 nM.

`CCCCCCCCCCCCCCC1COC(COCCCC[N+]2(C)CCOCC2)C1` (racemic) [Compound 81, (±)-cis, trans-4-methyl-4-[4-[(4-tetradecyltetrahydrofuran-2-yl)methoxy]butyl]morpholinium 4-methylbenzenesulfonate]: in experiment [1] (setting [3]), the IC50 was 51000 nM.

Take `CCCCCCCCCCCCCCC1COC(COCCCC[n+]2ccsc2)C1` (racemic) [Compound 79, (±)-cis, trans-3-[4-[(4-tetradecyltetrahydrofuran-2-yl)methoxy]butyl]thiazolium 4-methylbenzenesulfonate]: the IC50 in experiment [1] (setting [3]) came to 39000 nM.

In the case of `CCCCCCCCCCCCCC[C@@H]1CO[C@@H](COCCCCCC[n+]2ccsc2)C1` (racemic) [Compound 84, (±)-trans-3-[6-[(4-tetradecyltetrahydrofuran-2-yl)methoxy]hexyl]thiazolium 4-methylbenzenesulfonate], the IC50 in experiment [1] (Oryctolagus cuniculus) was determined as 2600 nM.

On to `CCCCCCCCCCCCCCC1COC(COC(=O)CCCCC[n+]2ccn(C)c2)C1` (racemic) [Compound 78, (±)-cis, trans-3-methyl-1-[6-[(4-tetradecyltetrahydrofuran-2-yl)methoxy]-6-oxohexyl]imidazolium 4-methylbenzenesulfonate], for which the IC50 in experiment [1] (setting [3]) came out at 210000 nM.

For the compound `CCCCCCCCCCCCCCC1COC(COC(=O)CCCCC[n+]2ccsc2)C1` (racemic) [Compound 75, (±)-cis, trans-3-[6-[(4-tetradecyltetrahydrofuran-2-yl)methoxy]-6-oxohexyl]thiazolium 4-methylbenzenesulfonate], in experiment [1] (setting [3]), the IC50 was 50000 nM.

As for `CCCCCCCCCCCCCCC1COC(COCCCCCC[n+]2ccccc2)C1` (racemic) [Compound 74, (±)-cis, trans-1-[6-[(4-tetradecyltetrahydrofuran-2-yl)methoxy]hexyl]pyridinium methanesulfonate], the IC50 in experiment [1] (setting [3]) amounted to 6300 nM.

Values taken from US4997843A, “2,4-disubstituted derivatives of tetrahydrofuran useful for the treatment of PAF mediated illnesses” (J Uriach & Cia S.A., priority 1987, dated 1991).
